# From ChEMBL document CHEMBL5316353, “Antitarget, Anti-SARS-CoV-2 Leads, Drugs, and the Drug Discovery-Genetics Alliance Perspective” (J Med Chem, 2023)
# Square brackets hold non-standard residues; d marks the D form. Peptide text beside a SMILES is read from it. βAla = NCCC(=O)O
# What was measured:
# SARS-CoV-2 [1] = format: functional, organism-based; conditions: Severe acute respiratory syndrome coronavirus 2, Huh-7
# SARS-CoV-2 [2] = format: functional, organism-based; conditions: Severe acute respiratory syndrome coronavirus 2, HPAEpiC
# [3] = test system: Middle East respiratory syndrome-related coronavirus; experiment: Antiviral activity against MERS-CoV infected in human Huh-7 cells assessed as reduction of viral growth; format: functional, organism-based
# [4] = test system: Middle East respiratory syndrome-related coronavirus; format: functional, organism-based; conditions: Calu-3
# [5] = test system: Middle East respiratory syndrome-related coronavirus; format: functional, organism-based, Vero E6; conditions: Vero C1008
Structure (SMILES),EC50 (SARS-CoV-2 [1]) [nM],EC50 (SARS-CoV-2 [2]) [nM],EC50 [3] [nM],IC50 [4] [nM],IC50 [5] [nM]
"O=C[C@H](C[C@@H]1CCNC1=O)NC(=O)[C@@H]1[C@H]2CCC[C@H]2CN1C(=O)COc1ccc(Cl)cc1Cl (single isomer, unassigned)",31,1.1,,,
CC[C@H](C)[C@H](N)C(=O)N[C@@H](CCC(=O)O)C(=O)N[C@@H](CCC(=O)O)C(=O)N[C@H](C(=O)N[C@@H](CO)C(=O)N[C@@H](CCCCN)C(=O)N[C@@H](CCCCN)C(=O)N[C@H](C(=O)N[C@@H](CCC(=O)O)C(=O)N[C@@H](CCC(=O)O)C(=O)N[C@H](C(=O)N[C@@H](CO)C(=O)N[C@@H](CCCCN)C(=O)N[C@@H](CCCCN)C(=O)N[C@H](C(=O)N[C@@H](CCC(=O)O)C(=O)N[C@@H](CCC(=O)O)C(=O)N[C@H](C(=O)N[C@@H](CO)C(=O)N[C@@H](CCCCN)C(=O)N[C@@H](CCCCN)C(=O)N[C@H](C(=O)N[C@@H](CCC(=O)O)C(=O)N[C@@H](CCC(=O)O)C(=O)N[C@H](C(=O)N[C@@H](CO)C(=O)N[C@@H](CCCCN)C(=O)N[C@@H](CCCCN)C(=O)N[C@H](C(=O)N[C@@H](CCC(=O)O)C(=O)N[C@@H](CCC(=O)O)C(=O)N[C@H](C(=O)N[C@@H](CO)C(=O)N[C@@H](CCCCN)C(=O)N[C@@H](CCCCN)C(=O)NCCC(=O)N[C@@H](CCCCN)C(=O)O)[C@@H](C)CC)[C@@H](C)CC)[C@@H](C)CC)[C@@H](C)CC)[C@@H](C)CC)[C@@H](C)CC)[C@@H](C)CC)[C@@H](C)CC)[C@@H](C)CC (H-IEEISKKIEEISKKIEEISKKIEEISKKIEEISKK[βAla]K-OH),,,100,,
CC1(C)[C@@H]2[C@@H](C(=O)N[C@H](C=O)C[C@@H]3CCNC3=O)N(C(=O)COc3ccc(OC(F)(F)F)cc3)C[C@@H]21,35.3,1.2,,,
CC[C@H](C)[C@H](NC(=O)[C@H](Cc1ccc(O)cc1)NC(=O)[C@H](CO)NC(=O)[C@H](CCC(=O)O)NC(=O)[C@H](CC(N)=O)NC(=O)[C@H](CC(C)C)NC(=O)[C@H](C)NC(=O)[C@H](CCCCN)NC(=O)[C@@H](NC(=O)[C@@H](NC(=O)[C@H](CCC(N)=O)NC(=O)[C@H](CCC(N)=O)NC(=O)[C@H](CC(C)C)NC(=O)[C@H](CO)NC(=O)[C@H](CCCNC(=N)N)NC(=O)[C@H](CCSC)NC(=O)[C@H](CCC(=O)O)NC(=O)[C@H](Cc1ccc(O)cc1)NC(=O)[C@H](CCC(=O)O)NC(=O)[C@H](CC(C)C)NC(=O)[C@H](CC(=O)O)NC(=O)[C@H](CC(C)C)NC(=O)[C@H](CC(C)C)NC(=O)[C@@H](NC(=O)[C@@H](NC(=O)[C@H](CC(N)=O)NC(=O)[C@@H](NC(=O)[C@H](CCC(N)=O)NC(=O)[C@@H](NC(=O)[C@H](CC(C)C)NC(=O)[C@@H](N)CO)[C@@H](C)O)[C@@H](C)CC)[C@@H](C)O)[C@@H](C)O)C(C)C)C(C)C)C(=O)N[C@@H](CC(=O)O)C(=O)N[C@@H](CC(C)C)C(=O)N[C@@H](CCCCN)C(=O)N[C@@H](CCC(=O)O)C(=O)N[C@@H](CC(C)C)C(=O)O,,,,550,550
CC[C@H](C)[C@H](NC(=O)[C@H](Cc1ccc(O)cc1)NC(=O)[C@H](CO)NC(=O)[C@H](CCC(=O)O)NC(=O)[C@H](CCC(=O)O)NC(=O)[C@H](CC(C)C)NC(=O)[C@H](CCCCN)NC(=O)[C@H](CCCCN)NC(=O)[C@@H](NC(=O)[C@@H](NC(=O)[C@H](CCC(=O)O)NC(=O)[C@H](CCC(=O)O)NC(=O)[C@H](CC(C)C)NC(=O)[C@H](CCCCN)NC(=O)[C@H](CCCCN)NC(=O)[C@H](CCSC)NC(=O)[C@H](CCC(=O)O)NC(=O)[C@H](Cc1ccc(O)cc1)NC(=O)[C@H](CCC(=O)O)NC(=O)[C@H](CC(C)C)NC(=O)[C@H](CC(=O)O)NC(=O)[C@H](CC(C)C)NC(=O)[C@H](CC(C)C)NC(=O)[C@@H](NC(=O)[C@@H](NC(=O)[C@H](CC(N)=O)NC(=O)[C@@H](NC(=O)[C@H](CCC(N)=O)NC(=O)[C@@H](NC(=O)[C@H](CC(C)C)NC(=O)[C@@H](N)CO)[C@@H](C)O)[C@@H](C)CC)[C@@H](C)O)[C@@H](C)O)C(C)C)C(C)C)C(=O)N[C@@H](CC(=O)O)C(=O)N[C@@H](CC(C)C)C(=O)N[C@@H](CCCCN)C(=O)N[C@@H](CCC(=O)O)C(=O)N[C@@H](CC(C)C)C(=O)O,,,,550,550
